pEC50: −log10 of the molar value.

One assay deals with T1, EP1 (Homo sapiens, UniProt P34995).
T1 construct: expressed in transfected cells; host or cells: CHO (EP1-CHO)
T1 sequence (P34995 1-402): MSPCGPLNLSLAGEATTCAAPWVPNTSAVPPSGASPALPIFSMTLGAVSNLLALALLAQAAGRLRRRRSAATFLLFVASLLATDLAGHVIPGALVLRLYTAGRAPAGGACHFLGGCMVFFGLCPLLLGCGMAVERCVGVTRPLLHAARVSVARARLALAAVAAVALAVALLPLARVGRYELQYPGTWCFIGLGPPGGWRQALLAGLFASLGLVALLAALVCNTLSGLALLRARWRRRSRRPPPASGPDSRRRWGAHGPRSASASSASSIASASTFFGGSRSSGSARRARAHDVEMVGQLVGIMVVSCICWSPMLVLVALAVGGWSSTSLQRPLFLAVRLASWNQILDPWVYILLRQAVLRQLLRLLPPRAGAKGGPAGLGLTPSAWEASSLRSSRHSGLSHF
Put plainly: agonist activity on human EP1 receptor (intracellular calcium concentration, EP1-CHO cells). Type of assay: cell-based. Summed up:
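Calcium 6 dye loaded 1 h at room temperature in HBSS with 1% human serum albumin, 2 µmol/L indomethacin, 2.5 mmol/L probenecid, pH 7.4; agonists then added at various concentrations. Intracellular calcium read by fluorescence (ex 480/em 540 nm) in CHO cells expressing human EP1 or Chem1 cells expressing human EP3.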
A general note: A change in cytosolic calcium serves as a functional read-out for many receptors and channels.

In assay [1] the test system is rat 5/6 kidney-removed model. Put plainly: in vivo drug efficacy on renal damage in rat 5/6 kidney-removed model. Further details: species or system Jcl: Wistar (Wistar) rats. Particulars: after 8 weeks from the start of administration. An excerpt:
The obtained urine sample was centrifuged, and the supernatant was subjected to measurement.

The term pEC50 denotes −log10 of the EC50, conventionally taken in molar units. With `CC(C)(c1ccccc1)C(O)/C=C/[C@H]1CC[C@@H]2Oc3c(ccc(C(=O)O)c3F)CC[C@@H]21` (stereo partly drawn) [Example 25-7, (1R,3aS,10aR)-5-fluoro-1-[(1E,3ξ)-3-hydroxy-4-methyl-4-phenyl-1-penten-1-yl]-2,3,3a,9,10,10a-hexahydro-1H-benzo[b]cyclopenta[f]oxepine-6-carboxylic acid], the pEC50 on EP1 is under 5.00.
Regarding `Cc1c(C(=O)O)ccc2c1O[C@H]1C[C@@H](O)[C@H](/C=C/C[C@@](C)(O)CCCC(F)(F)F)[C@H]1CC2` [Example 12, (1R,2R,3aS,10aR)-2-hydroxy-5-methyl-1-[(1E,4S)-8,8,8-trifluoro-4-hydroxy-4-methyl-1-octen-1-yl]-2,3,3a,9,10,10a-hexahydro-1H-benzo[b]cyclopenta[f]oxepine-6-carboxylic acid], the results for the “Amount of albumin excreted in urine mean” value in assay [1] (0.01 mg/kg orally once a day for 8 weeks) and in assay [1] (0.03 mg/kg orally once a day for 8 weeks) were 66.09 mg/24 h and 44.16 mg/24 h, respectively. Also, on EP1, the pEC50 is 5.46.

For the origin of these results see patent EP4682141A1, “TRICYCLIC COMPOUND” (ONO Pharmaceutical Co., Ltd., priority 2023, dated 2024).
